# Results reported in patent publication US11884734B2, “Anti-MET antibodies and methods of use thereof” (Celldex Therapeutics, Inc., priority 2015, dated 2024).
# Columns and labels:
# MET [1] = target: T1, MET (Homo sapiens, UniProt P08581); test: MET shedding ELISA (sMET-ECD release) in A549 cells; format: cell-based; set-up: cell lines expressing wild-type MET such as A549 cells; endogenous in cells; host or cells: A549; conditions: 24 hrs, 1 nM of antibody, FIG. 12A
# U87MG tumor cells = test: U87MG orthotopic mouse model (bioluminescence); format: in vivo; conditions: 25 mg/kg; compared with control chimeric IgG1 anti-KLH antibody
# Description: The ability of the anti-MET antibodies to inhibit tumor growth in vivo is assessed as described in Sections 6.2.1.3, 6.2.1.4, and 6.2.1.5. […] Treatment was performed biweekly, every three to four days, for seven weeks.
# [2] = test system: MET, AKT and MAPK phosphorylation; test: Akt and MAPK phosphorylation analysis by western blot in A549 cells; format: cell-based, human; conditions: HGF treatment
# Description: Western blots were generated from total protein separated on a 10% SDS-PAGE gel. Resolved protein was transferred to nitrocellulose (Bio-Rad), blocked for 1 h with 5% skim milk at 25° C., and then incubated with the indicated antibody overnight at 4° C. The anti-pAkt antibody, anti-pMAPK antibody (Cell Signaling cat. No. 9271 and Cell Signaling cat. No. 4370, respectively), and anti-1234/1235 MET XP antibody (Cell Signaling cat. No. 3077) were used at a concentration of 1 μg/mL in 5% skim milk. Secondary mouse and rabbit antibodies (GE Healthcare) were used at a 1:5000 dilution for 1 h at 25° C. SuperSignal® West Picto Chemiluminescent HRP Substrate (Thermo Scientific cat. No. 34078) was used as directed.
# MET [3] = target: T1, MET; test: HGF-induced MET degradation in A549 cells; format: cell-based; set-up: cell lines expressing wild-type MET such as A549 and U87MG cells; endogenous in cells; host or cells: A549; conditions: A549 cells (wild-type MET)
# Source text: (§1) MET exon 14 mutations have been reported in many cancers (The Cancer Genome Atlas Research Network, 2014, Nature, 511(7511):543-550; Frampton et al., 2015, Cancer Discov. 5(8):850-859). MET exon 14 mutations confer reduced HGF-induced receptor degradation. Deletion of exon 14 (Leu964-Asp1010) removes the Tyr1003 site necessary for Cbl binding leading to a substantial decrease HGF-induced receptor degradation as previously reported (Kong-Beltram et al., 2006, Cancer Res. 66(1):283-289). […] In a non-small-cell lung cancer cell line H596, a functional MET protein is expressed without the 47 amino acids encoded by exon 14 (Kong-Beltram et al., 2006, Cancer Res. 66(1):283-289).
# MET [4] = target: T1, MET; test: MET ubiquitination in A549 cells (immunoprecipitation/immunoblot); format: cell-based; set-up: cell lines expressing wild-type MET such as A549 and U87MG cells; endogenous in cells; host or cells: A549; conditions: 1 nM, 15 min, FIG. 12B
# Source text: Whether the anti-MET antibodies promote MET ubiquitination and degradation was investigated next. […] Cell lysates were precipitated with anti-ubiquitin antibody conjugated agarose (Santa Cruz) followed by immunoblotting with anti-MET antibody (Cell Signaling Technology). […] Thus, these antibodies promote receptor degradation utilizing the ubiquitination mechanism instead of protease-mediated shedding. This is in contrast with membrane protease-mediated receptor shedding observed previously with antibodies such as DN30 (Schleter, 2010, J. Biol. Chem. 285(34):26335-26340).
# MET [5] = target: T1, MET; test: HGF-induced MET degradation in U87MG cells; format: cell-based; conditions: U87MG cells (wild-type MET)
# Source text: as §1
# MET [6] = target: T2, MET (Homo sapiens, UniProt P08581, DEL964-1010); test: MET degradation in H596 cells (exon 14 deleted MET); format: cell-based; conditions: 1 nM HGF, 24 hrs
# T2 construct: In a non-small-cell lung cancer cell line H596, a functional MET protein is expressed without the 47 amino acids encoded by exon 14; endogenous in cells; host or cells: H596 (NSCLC / adenosquamous carcinoma)
# Source text: as §1
compound,measurement,setting,value
"CCCCCCCCCCCCCC(=O)O[C@@H]1[C@@H](C)[C@@]2(O)[C@@H](C=C(CO)C[C@]3(O)C(=O)C(C)=C[C@@H]23)[C@@H]2C(C)(C)[C@]12OC(C)=O [PMA, phorbol 12-myristate 13-acetate]",MET shedding (release of sMET-ECD into culture medium),MET [1],induced substantial MET shedding
C[C@@H](Oc1cc(-c2cnn(C3CCNCC3)c2)cnc1N)c1c(Cl)ccc(F)c1Cl [crizotinib],tumor growth (bioluminescence),U87MG tumor cells,resulted in similar tumor growth
same,"MET protein levels, western blot",[2],not observed
same,"activation of MET (phosphorylated MET), western blot",[2],inhibited activation of MET
same,"activation of downstream signaling components Akt and MAPK (phosphorylation), western blot",[2],reduces the activation of downstream signaling components Akt and MAPK
HGF: MET ligand used to stimulate cells,receptor degradation,MET [3],approximately 80%
same,MET receptor ubiquitination,MET [4],induced potent receptor ubiquitination
same,receptor degradation,MET [5],approximately 80%
same,receptor degradation,MET [6],30%
